Laboratory results from publication PMC12802961 (Journal of Antimicrobial Chemotherapy, 2025).

Columns and labels:
KPC P. aeruginosa = KPC P. aeruginosa strain of previous animal study, cited from earlier work
KPC K. pneumoniae = KPC K. pneumoniae strain of previous animal study, cited from earlier work
[1] = human, in vivo; cited from earlier work
[2] = tested on: ESBL-producing Enterobacterales; assay: Neutropenic murine thigh infection model, Enterobacterales together; format: in vivo; settings: Ct where in vitro reversal of cefepime resistance was found
Procedure: (§1) […]. […] […]. All dosing regimens were performed in at least two animals per dosing regimen.
(§2) At t = 0 h, 2 h after infection, two mice were humanely euthanized to determine the initial number of cfu/thigh just before treatment. All other animals were euthanized at t = 24 h unless the welfare of the animals indicated earlier termination, following animal welfare regulations. Thighs were taken and moved to a pre-cooled 10 mL plastic tube (Transport Tube, Omnilabo, NL) containing 2 mL PBS (NaCl 8.00 g/L, Na2HPO4 * 2H2O 1.44 g/L, KH2PO4 0.26 g/L, pH 7.2–7.4). Subsequently, thighs were homogenized using the Ultra-Turrax homogenizer (IKA Labortechnik, Germany). For each thigh 10-fold dilution series were prepared and 3 × 10 µL per dilution were plated (Chromagar, bioMérieux, NL). The following day, colonies were counted and the number of cfu/thigh was calculated. The drug effect was then determined as the difference between the log10cfu/thigh values at t = 24 h and t = 0 h (mean value of two mice) expressed as Δlog10cfu, i.e. positive result for growth, zero for static effect and negative for reduction of inoculum (killing).
(§3) . […] Free drug concentrations were used in all calculations. […]

[3] = tested on: MBL- and ESBL-producing isolates; settings: cited from earlier work
P. aeruginosa isolates = assay: Neutropenic murine thigh infection model, P. aeruginosa isolates together; format: in vivo, Pseudomonas aeruginosa; settings: Ct where in vitro reversal of cefepime resistance was found
Procedure: as §1, §2, §3

| SMILES | unpotentiated cefepime MIC (KPC P. aeruginosa) | potentiated cefepime MIC (KPC P. aeruginosa; with taniborbactam) | unpotentiated cefepime MIC (KPC K. pneumoniae) | potentiated cefepime MIC (KPC K. pneumoniae; with taniborbactam) | half-life [1] | %fT > Ct for 1 log kill [2] | %fT > Ct for stasis [2] | Cefepime MIC reduction [3] | %fT > Ct for 1 log kill (P. aeruginosa isolates) | %fT > Ct for stasis (P. aeruginosa isolates) |
| --- | --- | --- | --- | --- | --- | --- | --- | --- | --- | --- |
| CO/N=C(\C(=O)N[C@@H]1C(=O)N2C(C(=O)[O-])=C(C[N+]3(C)CCCC3)CS[C@H]12)c1csc(N)n1 [cefepime, Cefepime] | > 512 µg/mL | 4 µg/mL | > 512 µg/mL | 2 µg/mL |  |  |  |  |  |  |
| NCCN[C@H]1CC[C@H](CC(=O)N[C@H]2Cc3cccc(C(=O)O)c3OB2O)CC1 [taniborbactam, Taniborbactam] |  |  |  |  | 10 h | 100% | ~50% | ≥ 2 fold | ~60% | ~40% |
